Measured values published in PMC6399220, “Engineered XylE as a tool for mechanistic investigation and ligand discovery of the glucose transporters GLUTs” (Cell Discovery, 2019).

What was measured:
Format in all cases: binding
[1] = target: T1, XylE-WW (xylose:proton symporter XylE) (Escherichia coli, UniProt P0AGF4, G58W/L315W); assay: MST
[2] = target: T2, XylE (WT, xylose:proton symporter) (Escherichia coli, UniProt P0AGF4); assay: MST
T2 sequence (P0AGF4 1-491): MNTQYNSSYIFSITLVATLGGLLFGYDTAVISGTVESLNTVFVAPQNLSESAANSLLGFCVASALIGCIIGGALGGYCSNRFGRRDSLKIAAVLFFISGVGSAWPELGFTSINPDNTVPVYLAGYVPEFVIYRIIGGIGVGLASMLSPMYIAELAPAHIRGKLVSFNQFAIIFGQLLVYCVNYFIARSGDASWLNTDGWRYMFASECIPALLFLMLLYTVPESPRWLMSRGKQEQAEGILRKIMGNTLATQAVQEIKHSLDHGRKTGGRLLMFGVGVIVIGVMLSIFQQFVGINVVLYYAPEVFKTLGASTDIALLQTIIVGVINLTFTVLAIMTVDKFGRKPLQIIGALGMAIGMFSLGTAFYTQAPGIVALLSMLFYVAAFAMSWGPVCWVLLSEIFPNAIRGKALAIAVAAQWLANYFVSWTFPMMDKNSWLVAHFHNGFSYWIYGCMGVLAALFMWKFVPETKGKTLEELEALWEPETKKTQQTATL

[3] = target: T1, XylE-WW (xylose:proton symporter XylE); assay: MST and ITC
[4] = target: T2, XylE (WT, xylose:proton symporter); assay: ITC (MST almost identical)

Compound | Kd [1] [µM] | Kd [2] [µM] | Kd [3] [µM] | Kd [4] [µM]
OC[C@H]1OC(O)[C@H](O)[C@@H](O)[C@@H]1O (stereo partly drawn) [D-glucose] | 27.5 ± 0.5 | 2080 ± 95.7 | – | –
OC1OC[C@@H](O)[C@H](O)[C@H]1O (stereo partly drawn) [D-xylose] | – | – | 14.4 ± 0.2 | 843 ± 8
